Test results reported in patent USRE49022E1, “Insecticidal compounds” (SYNGENTA PARTICIPATIONS AG, priority 2013, dated 2022).

test system: Diabrotica balteata (Corn Root Worm); experiment: Diabrotica balteata, artificial diet MTP test; format: in vivo; conditions: 120 h, 200 ppm (concentration in well 18 ppm), L2 larvae, larval mortality after 5 days
Method: A 24-well microtiter plate (MTP) with artificial diet was treated with test solutions at an application rate of 200 ppm (concentration in well 18 ppm) by pipetting. After drying, the MTP's were infested with L2 larvae (6-10 per well). After an incubation period of 5 days, samples were checked for larval mortality The following compound gave at least 80% control of Diabrotica balteata: 1, 2, 3, 4, 5, 6, 7, 8, 9, 10, 11, 12, 13, 14, 15, 16, 17, 18, 19, 20, 21, 22, 23, 24, 25, 26, 27, 28, 29, 30, 31, 32, 33, 34, 35, 36, 37, 38, 39, 40, 41, 42, 43, 44, 45, 46, 47, 48, 49, 50, 51.

SMILES	pest or weed control at 200 ppm [%]
O=C(Nc1cccc(C(=O)Nc2c(Br)cc(C(F)(C(F)(F)F)C(F)(F)Cl)cc2OC(F)F)c1F)c1ccncc1 (centres unmarked) [Compound 11]	≥ 80
O=C(Nc1cccc(C(=O)Nc2c(Br)cc(C(F)(C(F)(F)F)C(F)(F)Cl)cc2OC(F)F)c1F)c1cccnc1 (centres unmarked) [Compound 12]	≥ 80
N#Cc1ccc(C(=O)Nc2cccc(C(=O)Nc3c(Br)cc(C(F)(C(F)(F)F)C(F)(F)Cl)cc3OC(F)F)c2F)cc1 (centres unmarked) [Compound 13]	≥ 80
COc1c(NC(=O)c2ccncc2)cccc1C(=O)Nc1c(Br)cc(C(F)(C(F)(F)F)C(F)(F)Cl)cc1OC(F)F (centres unmarked) [Compound 14]	≥ 80
COc1c(NC(=O)c2cccnc2)cccc1C(=O)Nc1c(Br)cc(C(F)(C(F)(F)F)C(F)(F)Cl)cc1OC(F)F (centres unmarked) [Compound 15]	≥ 80
COc1c(NC(=O)c2ccc(C#N)cc2)cccc1C(=O)Nc1c(Br)cc(C(F)(C(F)(F)F)C(F)(F)Cl)cc1OC(F)F (centres unmarked) [Compound 16]	≥ 80
CCc1cc(C(F)(C(F)(F)F)C(F)(F)Cl)cc(Br)c1NC(=O)c1cccc(NC(=O)c2cccnc2)c1OC (centres unmarked) [Compound 21]	≥ 80

test system: Myzus persicae (Green Peach Aphid); experiment: Myzus persicae, sunflower leaf disc spray test; format: in vivo; conditions: foliar, 144 h, sprayed sunflower leaf discs, aphid population of mixed ages, mortality after 6 DAT
Method: Sunflower leaf discs were placed on agar in a 24-well microtiter plate and sprayed with test solutions at an application rate of 200 ppm. After drying, the leaf discs were infested with an aphid population of mixed ages. After an incubation period of 6 DAT, samples were checked for mortality.

SMILES	pest or weed control at 200 ppm [%]
O=C(Nc1cccc(C(=O)Nc2c(Br)cc(C(F)(C(F)(F)F)C(F)(F)Cl)cc2OC(F)F)c1F)c1ccncc1 (centres unmarked) [Compound 11]	≥ 80
O=C(Nc1cccc(C(=O)Nc2c(Br)cc(C(F)(C(F)(F)F)C(F)(F)Cl)cc2OC(F)F)c1F)c1cccnc1 (centres unmarked) [Compound 12]	≥ 80
N#Cc1ccc(C(=O)Nc2cccc(C(=O)Nc3c(Br)cc(C(F)(C(F)(F)F)C(F)(F)Cl)cc3OC(F)F)c2F)cc1 (centres unmarked) [Compound 13]	≥ 80
COc1c(NC(=O)c2ccncc2)cccc1C(=O)Nc1c(Br)cc(C(F)(C(F)(F)F)C(F)(F)Cl)cc1OC(F)F (centres unmarked) [Compound 14]	≥ 80
COc1c(NC(=O)c2cccnc2)cccc1C(=O)Nc1c(Br)cc(C(F)(C(F)(F)F)C(F)(F)Cl)cc1OC(F)F (centres unmarked) [Compound 15]	≥ 80
COc1c(NC(=O)c2ccc(C#N)cc2)cccc1C(=O)Nc1c(Br)cc(C(F)(C(F)(F)F)C(F)(F)Cl)cc1OC(F)F (centres unmarked) [Compound 16]	≥ 80
CCc1cc(C(F)(C(F)(F)F)C(F)(F)Cl)cc(Br)c1NC(=O)c1cccc(NC(=O)c2cccnc2)c1OC (centres unmarked) [Compound 21]	≥ 80

test system: Myzus persicae (Green Peach Aphid); experiment: Myzus persicae, sucrose solution / Parafilm test; format: in vivo; conditions: 120 h, mixed with sucrose solution under Parafilm, mortality 5 days after infestation
Text: Test compounds were applied by pipette into 24 well plates and mixed with Sucrose solution. Application rate: 12.5 ppm. The plates were closed with a stretched Parafilm. A plastic stencil with 24 holes is placed onto the plate and infested pea seedlings were placed directly on the Parafilm. The infested plate is closed with a gel blotting paper and another plastic stencil and then turned upside down. 5 days after infestation the samples were checked on mortality.

SMILES	pest or weed control at 12.5 ppm [%]
O=C(Nc1cccc(C(=O)Nc2c(Br)cc(C(F)(C(F)(F)F)C(F)(F)Cl)cc2OC(F)F)c1F)c1ccncc1 (centres unmarked) [Compound 11]	≥ 80
O=C(Nc1cccc(C(=O)Nc2c(Br)cc(C(F)(C(F)(F)F)C(F)(F)Cl)cc2OC(F)F)c1F)c1cccnc1 (centres unmarked) [Compound 12]	≥ 80
N#Cc1ccc(C(=O)Nc2cccc(C(=O)Nc3c(Br)cc(C(F)(C(F)(F)F)C(F)(F)Cl)cc3OC(F)F)c2F)cc1 (centres unmarked) [Compound 13]	≥ 80
COc1c(NC(=O)c2ccncc2)cccc1C(=O)Nc1c(Br)cc(C(F)(C(F)(F)F)C(F)(F)Cl)cc1OC(F)F (centres unmarked) [Compound 14]	≥ 80
COc1c(NC(=O)c2cccnc2)cccc1C(=O)Nc1c(Br)cc(C(F)(C(F)(F)F)C(F)(F)Cl)cc1OC(F)F (centres unmarked) [Compound 15]	≥ 80
COc1c(NC(=O)c2ccc(C#N)cc2)cccc1C(=O)Nc1c(Br)cc(C(F)(C(F)(F)F)C(F)(F)Cl)cc1OC(F)F (centres unmarked) [Compound 16]	≥ 80
CCc1cc(C(F)(C(F)(F)F)C(F)(F)Cl)cc(Br)c1NC(=O)c1cccc(NC(=O)c2cccnc2)c1OC (centres unmarked) [Compound 21]	≥ 80

test system: Plutella xylostella (Diamond Back Moth); experiment: Plutella xylostella, artificial diet MTP test; format: in vivo; conditions: 144 h, 200 ppm (concentration in well 18 ppm), L2 larvae, 6 days
Method: 24-well microtiter plate (MTP) with artificial diet was treated with test solutions at an application rate of 200 ppm (concentration in well 18 ppm) by pipetting. After drying, the MTP's were infested with L2 larvae (7-12 per well). After an incubation period of 6 days, samples were checked for larval mortality and growth regulation. The following compound gave at least 80% mortality of Plutella xylostella: 1, 2, 3, 4, 5, 6, 7, 8, 9, 10, 11, 12, 13, 14, 15, 16, 17, 18, 19, 20, 21, 22, 23, 24, 25, 26, 27, 28, 29, 30, 31, 32, 33, 34, 35, 36, 37, 38, 39, 40, 41, 42, 43, 44, 45, 46, 47, 48, 49, 50.

SMILES	mortality at 200 ppm [%]
O=C(Nc1cccc(C(=O)Nc2c(Br)cc(C(F)(C(F)(F)F)C(F)(F)Cl)cc2OC(F)F)c1F)c1ccncc1 (centres unmarked) [Compound 11]	≥ 80
O=C(Nc1cccc(C(=O)Nc2c(Br)cc(C(F)(C(F)(F)F)C(F)(F)Cl)cc2OC(F)F)c1F)c1cccnc1 (centres unmarked) [Compound 12]	≥ 80
N#Cc1ccc(C(=O)Nc2cccc(C(=O)Nc3c(Br)cc(C(F)(C(F)(F)F)C(F)(F)Cl)cc3OC(F)F)c2F)cc1 (centres unmarked) [Compound 13]	≥ 80
COc1c(NC(=O)c2ccncc2)cccc1C(=O)Nc1c(Br)cc(C(F)(C(F)(F)F)C(F)(F)Cl)cc1OC(F)F (centres unmarked) [Compound 14]	≥ 80
COc1c(NC(=O)c2cccnc2)cccc1C(=O)Nc1c(Br)cc(C(F)(C(F)(F)F)C(F)(F)Cl)cc1OC(F)F (centres unmarked) [Compound 15]	≥ 80
COc1c(NC(=O)c2ccc(C#N)cc2)cccc1C(=O)Nc1c(Br)cc(C(F)(C(F)(F)F)C(F)(F)Cl)cc1OC(F)F (centres unmarked) [Compound 16]	≥ 80
CCc1cc(C(F)(C(F)(F)F)C(F)(F)Cl)cc(Br)c1NC(=O)c1cccc(NC(=O)c2cccnc2)c1OC (centres unmarked) [Compound 21]	≥ 80

test system: Spodoptera littoralis (Egyptian Cotton Leafworm); experiment: Spodoptera littoralis, cotton leaf disc spray test; format: in vivo; conditions: foliar, 72 h, sprayed cotton leaf discs, L1 larvae, 3 days after treatment
Text: Cotton leaf discs were placed on agar in a 24-well microtiter plate and sprayed with test solutions at an application rate of 200 ppm. After drying, the leaf discs were infested with 5 L1 larvae. The samples were checked for mortality 3 days after treatment (DAT).

SMILES	mortality at 200 ppm [%]
O=C(Nc1cccc(C(=O)Nc2c(Br)cc(C(F)(C(F)(F)F)C(F)(F)Cl)cc2OC(F)F)c1F)c1ccncc1 (centres unmarked) [Compound 11]	≥ 80
O=C(Nc1cccc(C(=O)Nc2c(Br)cc(C(F)(C(F)(F)F)C(F)(F)Cl)cc2OC(F)F)c1F)c1cccnc1 (centres unmarked) [Compound 12]	≥ 80
N#Cc1ccc(C(=O)Nc2cccc(C(=O)Nc3c(Br)cc(C(F)(C(F)(F)F)C(F)(F)Cl)cc3OC(F)F)c2F)cc1 (centres unmarked) [Compound 13]	≥ 80
COc1c(NC(=O)c2ccncc2)cccc1C(=O)Nc1c(Br)cc(C(F)(C(F)(F)F)C(F)(F)Cl)cc1OC(F)F (centres unmarked) [Compound 14]	≥ 80
COc1c(NC(=O)c2cccnc2)cccc1C(=O)Nc1c(Br)cc(C(F)(C(F)(F)F)C(F)(F)Cl)cc1OC(F)F (centres unmarked) [Compound 15]	≥ 80
COc1c(NC(=O)c2ccc(C#N)cc2)cccc1C(=O)Nc1c(Br)cc(C(F)(C(F)(F)F)C(F)(F)Cl)cc1OC(F)F (centres unmarked) [Compound 16]	≥ 80
CCc1cc(C(F)(C(F)(F)F)C(F)(F)Cl)cc(Br)c1NC(=O)c1cccc(NC(=O)c2cccnc2)c1OC (centres unmarked) [Compound 21]	≥ 80

test system: Spodoptera littoralis (Egyptian Cotton Leaf Worm); experiment: Spodoptera littoralis, agar / lettuce root uptake test; format: in vivo; conditions: 144 h, mixed with agar, uptake by lettuce roots, mortality 6 days after infestation
Text: Test compounds were applied by pipette into 24 well plates and mixed with agar. Application rate: 12.5 ppm. Lettuce seeds were placed on the agar and the multi well plate is closed by another plate which contains also agar. After 7 days the roots have absorbed the compound and the lettuce has grown into the lid plate. The lettuce leafs were now cut off into the lid plate. Spodoptera eggs were pipetted through a plastic stencil on a humid gel blotting paper and the plate closed with it. The samples are checked for mortality 6 days after infestation.

SMILES	pest or weed control at 12.5 ppm [%]
O=C(Nc1cccc(C(=O)Nc2c(Br)cc(C(F)(C(F)(F)F)C(F)(F)Cl)cc2OC(F)F)c1F)c1ccncc1 (centres unmarked) [Compound 11]	≥ 80
O=C(Nc1cccc(C(=O)Nc2c(Br)cc(C(F)(C(F)(F)F)C(F)(F)Cl)cc2OC(F)F)c1F)c1cccnc1 (centres unmarked) [Compound 12]	≥ 80
N#Cc1ccc(C(=O)Nc2cccc(C(=O)Nc3c(Br)cc(C(F)(C(F)(F)F)C(F)(F)Cl)cc3OC(F)F)c2F)cc1 (centres unmarked) [Compound 13]	≥ 80
COc1c(NC(=O)c2ccncc2)cccc1C(=O)Nc1c(Br)cc(C(F)(C(F)(F)F)C(F)(F)Cl)cc1OC(F)F (centres unmarked) [Compound 14]	≥ 80
COc1c(NC(=O)c2cccnc2)cccc1C(=O)Nc1c(Br)cc(C(F)(C(F)(F)F)C(F)(F)Cl)cc1OC(F)F (centres unmarked) [Compound 15]	≥ 80
COc1c(NC(=O)c2ccc(C#N)cc2)cccc1C(=O)Nc1c(Br)cc(C(F)(C(F)(F)F)C(F)(F)Cl)cc1OC(F)F (centres unmarked) [Compound 16]	≥ 80
CCc1cc(C(F)(C(F)(F)F)C(F)(F)Cl)cc(Br)c1NC(=O)c1cccc(NC(=O)c2cccnc2)c1OC (centres unmarked) [Compound 21]	≥ 80

test system: Tetranychus urticae (Two-Spotted Spider Mite); experiment: Tetranychus urticae, bean leaf disc spray test; format: in vivo; conditions: foliar, 192 h, sprayed bean leaf discs, mite populations of mixed ages, 8 days
Text: Bean leaf discs on agar in 24-well microtiter plates were sprayed with test solutions at an application rate of 200 ppm. After drying, the leaf discs are infested with mite populations of mixed ages. 8 days later, discs were checked for mortality.

SMILES	mortality at 200 ppm [%]
O=C(Nc1cccc(C(=O)Nc2c(Br)cc(C(F)(C(F)(F)F)C(F)(F)Cl)cc2OC(F)F)c1F)c1ccncc1 (centres unmarked) [Compound 11]	≥ 80
O=C(Nc1cccc(C(=O)Nc2c(Br)cc(C(F)(C(F)(F)F)C(F)(F)Cl)cc2OC(F)F)c1F)c1cccnc1 (centres unmarked) [Compound 12]	≥ 80
N#Cc1ccc(C(=O)Nc2cccc(C(=O)Nc3c(Br)cc(C(F)(C(F)(F)F)C(F)(F)Cl)cc3OC(F)F)c2F)cc1 (centres unmarked) [Compound 13]	≥ 80
COc1c(NC(=O)c2ccncc2)cccc1C(=O)Nc1c(Br)cc(C(F)(C(F)(F)F)C(F)(F)Cl)cc1OC(F)F (centres unmarked) [Compound 14]	≥ 80
COc1c(NC(=O)c2cccnc2)cccc1C(=O)Nc1c(Br)cc(C(F)(C(F)(F)F)C(F)(F)Cl)cc1OC(F)F (centres unmarked) [Compound 15]	≥ 80
COc1c(NC(=O)c2ccc(C#N)cc2)cccc1C(=O)Nc1c(Br)cc(C(F)(C(F)(F)F)C(F)(F)Cl)cc1OC(F)F (centres unmarked) [Compound 16]	≥ 80
CCc1cc(C(F)(C(F)(F)F)C(F)(F)Cl)cc(Br)c1NC(=O)c1cccc(NC(=O)c2cccnc2)c1OC (centres unmarked) [Compound 21]	≥ 80

test system: Thrips tabaci (Onion Thrips); experiment: Thrips tabaci, sunflower leaf disc spray test; format: in vivo; conditions: foliar, 168 h, sprayed sunflower leaf discs, mortality after 7 days

SMILES	pest or weed control at 200 ppm [%]
O=C(Nc1cccc(C(=O)Nc2c(Br)cc(C(F)(C(F)(F)F)C(F)(F)Cl)cc2OC(F)F)c1F)c1ccncc1 (centres unmarked) [Compound 11]	≥ 80
O=C(Nc1cccc(C(=O)Nc2c(Br)cc(C(F)(C(F)(F)F)C(F)(F)Cl)cc2OC(F)F)c1F)c1cccnc1 (centres unmarked) [Compound 12]	≥ 80
N#Cc1ccc(C(=O)Nc2cccc(C(=O)Nc3c(Br)cc(C(F)(C(F)(F)F)C(F)(F)Cl)cc3OC(F)F)c2F)cc1 (centres unmarked) [Compound 13]	≥ 80
COc1c(NC(=O)c2ccncc2)cccc1C(=O)Nc1c(Br)cc(C(F)(C(F)(F)F)C(F)(F)Cl)cc1OC(F)F (centres unmarked) [Compound 14]	≥ 80
COc1c(NC(=O)c2cccnc2)cccc1C(=O)Nc1c(Br)cc(C(F)(C(F)(F)F)C(F)(F)Cl)cc1OC(F)F (centres unmarked) [Compound 15]	≥ 80
COc1c(NC(=O)c2ccc(C#N)cc2)cccc1C(=O)Nc1c(Br)cc(C(F)(C(F)(F)F)C(F)(F)Cl)cc1OC(F)F (centres unmarked) [Compound 16]	≥ 80
CCc1cc(C(F)(C(F)(F)F)C(F)(F)Cl)cc(Br)c1NC(=O)c1cccc(NC(=O)c2cccnc2)c1OC (centres unmarked) [Compound 21]	≥ 80
